# Reference: US10709709B2, “Substituted carbonucleoside derivatives useful as anticancer agents” (Pfizer Inc., priority 2016, dated 2020)
# Biological target: PRMT5/MEP50 protein complex (Homo sapiens (Human), UniProt O14744)
# Experiment: PRMT5 biochemical assay (3H-SAM methylation of H4(1-21) peptide, filter plate scintillation)
# Conditions: 10 nM PRMT5/MEP50 complex, 200 nM H4(1-21) peptide, 1 uM SAM, 25 minute incubation at room temperature
# Experimental: Biochemical Assay Methods
# Compounds were solubilized in DMSO and serially diluted, using 3-fold dilutions, into 100% DMSO at a concentration 50-fold greater than the desired assay concentration. Following dilution, 1 ul was added to an empty 96-well microtiter plate. PRMT5/MEP50 protein complex was combined with H4(1-21) peptide ([…]) in PRMT5 assay buffer (50 mM Tris pH 8.5, 50 mM NaCl, 5 mM MgCl2, 1 mM EDTA, 1 mM TCEP) and 44 ul was added to the microtiter plate containing compound. S-Adenosyl-L-methionine (SAM) was prepared by combining ^3H labelled SAM with unlabelled SAM in PRMT5 assay buffer such that the final SAM concentration was 10 uM and the specific activity was 0.2 uCi/ul. The reaction was initiated by adding 5 ul of SAM stock to the microtiter plate. The final reaction conditions were 10 nM PRMT5/MEP50 complex, 200 nM peptide and 1 uM SAM. Following a 25 minute incubation at room temperature, the reaction was stopped with the addition of 100 uL of 20% TCA. The 3H-peptide product was captured using a 96-well filter plate (MSIPN4B, Millipore) and washed 5 times with PBS buffer. Scintillation fluid (100 ul) was added to the dried filter plate and counted in a liquid scintillation counter. IC50 values were determined by fitting the data to the standard 4-parameter dose response equation using Pfizer proprietary software.
# Results for the biochemical assay of examples are summarized in Table 1, shown as IC50 values in μM.
# PRMT5/MEP50 protein complex, sequence (O14744 other isoform, or with tags, fused parts or gaps): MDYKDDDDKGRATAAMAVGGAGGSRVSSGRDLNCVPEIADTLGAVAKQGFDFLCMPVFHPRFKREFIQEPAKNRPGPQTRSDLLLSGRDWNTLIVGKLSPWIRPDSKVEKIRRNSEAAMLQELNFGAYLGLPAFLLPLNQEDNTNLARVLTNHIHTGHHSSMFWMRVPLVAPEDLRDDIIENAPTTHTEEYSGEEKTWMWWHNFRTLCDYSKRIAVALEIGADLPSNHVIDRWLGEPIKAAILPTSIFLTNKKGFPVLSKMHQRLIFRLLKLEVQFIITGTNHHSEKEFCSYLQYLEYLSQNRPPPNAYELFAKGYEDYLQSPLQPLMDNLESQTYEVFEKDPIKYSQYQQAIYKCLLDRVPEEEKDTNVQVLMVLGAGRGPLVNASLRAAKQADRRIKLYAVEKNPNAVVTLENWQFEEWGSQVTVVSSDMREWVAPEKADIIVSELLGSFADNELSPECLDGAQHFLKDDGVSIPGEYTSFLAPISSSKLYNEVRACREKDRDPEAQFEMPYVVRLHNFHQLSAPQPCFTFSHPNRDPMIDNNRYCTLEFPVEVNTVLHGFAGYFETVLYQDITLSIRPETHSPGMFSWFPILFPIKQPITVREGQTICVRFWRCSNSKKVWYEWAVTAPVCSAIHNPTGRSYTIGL
# PRMT5/MEP50 protein complex, sequence (Q9BQA1 whole entry partner): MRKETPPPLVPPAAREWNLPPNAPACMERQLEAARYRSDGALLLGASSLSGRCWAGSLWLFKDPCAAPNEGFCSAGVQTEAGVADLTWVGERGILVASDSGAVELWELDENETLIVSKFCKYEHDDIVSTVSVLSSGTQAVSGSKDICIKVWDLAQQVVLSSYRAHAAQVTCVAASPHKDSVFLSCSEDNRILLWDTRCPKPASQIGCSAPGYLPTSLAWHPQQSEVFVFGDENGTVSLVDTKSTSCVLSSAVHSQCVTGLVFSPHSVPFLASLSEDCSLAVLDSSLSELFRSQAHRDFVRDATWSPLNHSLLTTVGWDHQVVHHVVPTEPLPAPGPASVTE
row,IC50 [nM],SMILES
1,5740,"CO[C@H]1C[C@@H](n2ccc3c(C)ncnc32)[C@H](O)[C@@H]1O (racemic) [Example 59, (+/−)-(1S,2S,3S,5R)-3-methoxy-5-(4-methyl-7H-pyrrolo[2,3-d]pyrimidin-7-yl)cyclopentane-1,2-diol]"
2,217,"Cc1ncnc2c1ccn2[C@@H]1C[C@H](C(F)c2ccc(F)cc2)[C@@H](O)[C@H]1O (single isomer, unassigned) [Example 21]"
3,> 200000,"N#Cc1cccc2c(N[C@@H]3C[C@H](C(O)c4ccc(F)c(F)c4)[C@@H](O)[C@H]3O)ncnc12 (single isomer, unassigned) [Example 29, 4-({(1R;2S;3R;4R)-4-[(3;4-difluorophenyl)(hydroxy)methyl]-2;3-dihydroxycyclopentyl}amino)quinazoline-8-carbonitrile]"
4,> 200000,"N#Cc1cccc2c(N[C@@H]3C[C@H](C(O)c4ccc(F)c(F)c4)[C@@H](O)[C@H]3O)ncnc12 (single isomer, unassigned) [Example 30, 4-({(1R;2S;3R;4R)-4-[(3;4-difluorophenyl)(hydroxy)methyl]-2;3-dihydroxycyclopentyl}amino)quinazoline-8-carbonitrile]"
5,6,"Cc1ncnc2c1ccn2[C@@H]1C[C@H](Oc2cccc3c2CNC(C)C3)[C@@H](O)[C@H]1O (single isomer, unassigned) [Example 185]"
6,971,"Cc1ncnc2c1ccn2[C@@H]1C[C@H](Oc2cccc3c2C(N)CCC3)[C@@H](O)[C@H]1O (single isomer, unassigned) [Example 187]"
7,604,"Cc1ncnc2c1ccn2[C@@H]1C[C@H](Oc2cccc3c2CC(N)CO3)[C@@H](O)[C@H]1O (single isomer, unassigned) [Example 189]"
8,510,"Cc1ncnc2c1ccn2[C@@H]1C[C@H]([C@@H](C)O)[C@@H](O)[C@H]1O [Example 1, (1S,2R,3R,5R)-3-((R)-1-hydroxyethyl)-5-(4-methyl-7H-pyrrolo[2,3-d]pyrimidin-7-yl)cyclopentane-1,2-diol]"
9,8380,"Cc1ncnc2c1ccn2[C@@H]1C[C@H]([C@H](C)O)[C@@H](O)[C@H]1O [Example 2, (1S,2R,3R,5R)-3-((S)-1-hydroxyethyl)-5-(4-methyl-7H-pyrrolo[2,3-d]pyrimidin-7-yl)cyclopentane-1,2-diol]"
10,> 200000,"Cc1cccc(CC(O)[C@H]2C[C@@H](n3ccc4c(C)ncnc43)[C@H](O)[C@@H]2O)n1 (stereo partly drawn) [Example 15, (1S,2R,3R,5R)-3-[1-hydroxy-2-(6-methylpyridin-2-yl)ethyl]-5-(4-methyl-7H-pyrrolo[2,3-d]pyrimidin-7-yl)cyclopentane-1,2-diol]"
11,2770,"Cc1ncnc2c1ccn2[C@@H]1C[C@H](C2(O)CC2)[C@@H](O)[C@H]1O [Example 17, (1S,2R,3S,5R)-3-(1-hydroxycyclopropyl)-5-(4-methyl-7H-pyrrolo[2,3-d]pyrimidin-7-yl)cyclopentane-1,2-diol]"
12,3700,"Cc1ncnc2c1ccn2[C@@H]1C[C@H](C(C)(C)O)[C@@H](O)[C@H]1O [Example 18, (1S,2R,3S,5R)-3-(2-hydroxypropan-2-yl)-5-(4-methyl-7H-pyrrolo[2,3-d]pyrimidin-7-yl)cyclopentane-1,2-diol]"
13,17100,"Cc1ncnc2c1ccn2[C@@H]1C[C@H]([C@@](C)(O)c2ccc(F)cc2)[C@@H](O)[C@H]1O [Example 20, (1S,2R,3S,5R)-3-[(1R)-1-(4-fluorophenyl)-1-hydroxyethyl]-5-(4-methyl-7H-pyrrolo[2,3-d]pyrimidin-7-yl)cyclopentane-1,2-diol]"
14,572,"Nc1ncnc2c1ccn2[C@@H]1C[C@H]([C@H](O)c2ccc(Cl)c(F)c2)[C@@H](O)[C@H]1O [Example 23, (1R,2S,3R,5R)-3-(4-amino-7H-pyrrolo[2,3-d]pyrimidin-7-yl)-5-((S)-(4-chloro-3-fluorophenyl)(hydroxy)methyl)cyclopentane-1,2-diol]"
15,71,"Nc1ncnc2c1ccn2[C@@H]1C[C@H]([C@@H](O)c2ccc(Cl)c(F)c2)[C@@H](O)[C@H]1O [Example 24, (1R,2S,3R,5R)-3-(4-amino-7H-pyrrolo[2,3-d]pyrimidin-7-yl)-5-((R)-(4-chloro-3-fluorophenyl)(hydroxy)methyl)cyclopentane-1,2-diol]"
16,704,"Nc1ncnc2c1c(F)cn2[C@@H]1C[C@H]([C@@H](O)c2ccc(F)cc2)[C@@H](O)[C@H]1O [Example 26, (1R,2S,3R,5R)-3-(4-amino-5-fluoro-7H-pyrrolo[2,3-d]pyrimidin-7-yl)-5-[(R)-(4-fluorophenyl)(hydroxy)methyl]cyclopentane-1,2-diol]"
17,449,"O[C@@H]1[C@H](O)[C@@H]([C@H](O)c2ccc(F)c(F)c2)C[C@H]1Nc1ncnc2[nH]ccc12 [Example 27, (1S,2R,3R,5R)-3-[(S)-(3,4-difluorophenyl)(hydroxy)methyl]-5-(7H-pyrrolo[2,3-d]pyrimidin-4-ylamino)cyclopentane-1,2-diol]"
18,5770,"O[C@@H]1[C@H](O)[C@@H]([C@@H](O)c2ccc(F)c(F)c2)C[C@H]1Nc1ncnc2[nH]ccc12 [Example 28, (1S,2R,3R,5R)-3-[(R)-(3,4-difluorophenyl)(hydroxy)methyl]-5-(7H-pyrrolo[2,3-d]pyrimidin-4-ylamino)cyclopentane-1,2-diol]"
19,466,"CN(c1ccncn1)[C@@H]1C[C@H]([C@H](O)c2ccc(F)c(F)c2)[C@@H](O)[C@H]1O [Example 31, (1S,2R,3R,5R)-3-[(S)-(3,4-difluorophenyl)(hydroxy)methyl]-5-[methyl(pyrimidin-4-yl)amino]cyclopentane-1,2-diol]"
20,3580,"Cc1cc(N(C)[C@@H]2C[C@H]([C@H](O)c3ccc(F)c(F)c3)[C@@H](O)[C@H]2O)ncn1 [Example 33, (1S,2R,3R,5R)-3-[(S)-(3,4-difluorophenyl)(hydroxy)methyl]-5-[methyl(6-methylpyrimidin-4-yl)amino] cyclopentane-1,2-diol]"
21,59500,"Cc1cc(N(C)[C@@H]2C[C@H]([C@@H](O)c3ccc(F)c(F)c3)[C@@H](O)[C@H]2O)ncn1 [Example 34, (1S,2R,3R,5R)-3-[(R)-(3,4-difluorophenyl)(hydroxy)methyl]-5-[methyl(6-methylpyrimidin-4-yl)amino] cyclopentane-1,2-diol]"
22,150,"Cc1nccc(N(C)[C@@H]2C[C@H]([C@H](O)c3ccc(F)c(F)c3)[C@@H](O)[C@H]2O)n1 [Example 35, (1S,2R,3R,5R)-3-[(S)-(3,4-difluorophenyl)(hydroxy)methyl]-5-[methyl(2-methylpyrimidin-4-yl)amino] cyclopentane-1,2-diol]"

row,SMILES,IC50 [nM]
1,"Cc1ncnc2c1ccn2[C@@H]1C[C@H]([C@@H](O)c2ccc(F)c(F)c2)[C@@H](O)[C@H]1O [Example 4, (1S,2R,5R)-3-[(R)-(3,4-difluorophenyl) (hydroxy)methyl]-5-(4-methyl-7H-pyrrolo[2,3-d]pyrimidin-7-yl)cyclopentane-1,2-diol]",681
2,"Cc1ncnc2c1ccn2[C@@H]1C[C@H]([C@@H](O)c2ccc(F)c(Cl)c2)[C@@H](O)[C@H]1O [Example 6, (1S,2R,3R,5R)-3-[(R)-(3-chloro-4-fluorophenyl) (hydroxy)methyl]-5-(4-methyl-7H-pyrrolo[2,3-d]pyrimidin-7-yl)cyclopentane-1,2-diol]",423
3,Cc1ncnc2c1ccn2[C@@H]1C[C@H]([C@H](O)c2cccc(Cl)c2)[C@@H](O)[C@H]1O [Example 7],120
4,"Cc1ncnc2c1ccn2[C@@H]1C[C@H]([C@@H](O)c2cccc(Cl)c2)[C@@H](O)[C@H]1O [Example 8, (1S,2R,3R,5R)-3-[(R)-(3-chlorophenyl) (hydroxy)methyl]-5-(4-methyl-7H-pyrrolo[2,3-d]pyrimidin-7-yl)cyclopentane-1,2-diol]",3390
5,"Cc1ncnc2c1ccn2[C@@H]1C[C@H]([C@H](O)c2ccc(F)cc2)[C@@H](O)[C@H]1O [Example 9, (1S,2R,3R,5R)-3-[(S)-(4-fluorophenyl) (hydroxy)methyl]-5-(4-methyl-7H-pyrrolo[2,3-d]pyrimidin-7-yl)cyclopentane-1,2-diol]",60
6,"Cc1ncnc2c1ccn2[C@@H]1C[C@H]([C@@H](O)c2ccc(F)cc2)[C@@H](O)[C@H]1O [Example 10, (1S,2R,3R,5R)-3-[(R)-(4-fluorophenyl) (hydroxy)methyl]-5-(4-methyl-7H-pyrrolo[2,3-d]pyrimidin-7-yl)cyclopentane-1,2-diol]",941
7,"Cc1ncnc2c1ccn2[C@@H]1C[C@H]([C@@H](O)c2ccc(Cl)cc2)[C@@H](O)[C@H]1O [Example 12, (1S,2R,3R,5R)-3-[(R)-(4-chlorophenyl) (hydroxy)methyl]-5-(4-methyl-7H-pyrrolo[2,3-d]pyrimidin-7-yl)cyclopentane-1,2-diol]",478
8,"Cc1ncnc2c1ccn2[C@@H]1C[C@H]([C@@H](O)c2cc(F)c(F)c(F)c2)[C@@H](O)[C@H]1O [Example 14, (1S,2R,3R,5R)-3-[(R)-hydroxy(3,4,5-trifluorophenyl)methyl]-5-(4-methyl-7H-pyrrolo[2,3-d]pyrimidin-7-yl)cyclopentane-1,2-diol]",719
